Measurements taken from patent US20210238169A1, “PROCESS FOR PREPARING A COMPOUND OF FORMULA (XIII)” (PULMOCIDE LIMITED, priority 2014, published 2021).

What was measured:
BEAS2B cells = assay: Cell viability: resazurin assay; type: cell-based, human; settings: concentrations up to, at least, 10 μM
Protocol: BEAS2B cells were seeded in 384-well plates (100 μL; 3000/well/; BD Falcon, Catalogue No 353962) in RPMI-LHC8 (RPMI-1640 and LHC8 media combined in equal proportions) one day before experimentation. For cell-free control wells, RPMI-LHC8 (100 μL) was added. Test compounds (0.5 μL of a DMSO solution) were added to give a final DMSO concentration of 0.5% using an Integra VIAFLO 96 (Integra, Zizers, Switzerland). BEAS2B cells were incubated with each test compound for 1 day (37° C./5% CO2 in RPMI-LHC8). After addition of resazurin stock solution (5 μL, 0.04%) the plates were incubated for a further 4 hr (37° C./5% CO2). The fluorescence of each well at 545 nm (excitation) and 590 nm (emission) was determined using a multi-scanner (Clariostar: BMG Labtech). The percentage loss of cell viability was calculated for each well relative to vehicle (0.5% DMSO) treatment. Where appropriate, a CC50 value was calculated from the concentration-response curve generated from the concentration-response curve for each test compound.

[1] = system: Aspergillus fumigatus (ATCC 13073); assay: Macrophage and neutrophil accumulation into BALF of Aspergillus fumigatus infected mice; type: in vivo
Protocol: (§1) Aspergillus fumigatus (ATCC 13073 [strain: NIH 5233], American Type Culture Collection, Manassas, Va., USA) was grown on Malt agar (Nissui Pharmaceutical, Tokyo, Japan) plates for 6-7 days at RT (24±1° C.). Spores were aseptically dislodged from the agar plates and suspended in sterile distilled water with 0.05% Tween 80 and 0.1% agar. On the day of infection, spore counts were assessed by haemocytometer and the inoculum was adjusted to obtain a concentration of 1.67×10^8 spores mL^−1 of physiological saline.
(§2) On day 0, animals were infected with the spore suspension (35 μL intra-nasally).
(§3) Test compounds were administered intra-nasally ([…]) once daily, 30 min before infection on day 0 and then on days 1, 2 and 3 (representing prophylactic treatment) or on days 1, 2 and 3 only (representing therapeutic treatment). For extended prophylactic treatment, test compounds (35 μL of a suspension of 0.0032 or 0.016 mg/mL in physiological saline) were administered intra-nasally once daily for seven days; then 30 min before infection on day 0, and thereafter, either on days 1, 2 and 3 after infection, or on day 0 only. The effects of these treatment paradigms were compared with those obtained when treatment was restricted to one day and 30 min before inoculation and then on days 1, 2 and 3 post infection; or reduced still further to one day and 30 min before infection only.
(§4) Six hours after the last dose, animals were anesthetised, the trachea was cannulated and BALF was collected. The total number of alveolar cells was determined using a haemocytometer, and the numbers of alveolar macrophages and neutrophils were determined by FACS analysis (EPICS® ALTRA II, Beckman Coulter, Inc., Fullerton, Calif., USA) using anti-mouse MOMA2-FITC (macrophage) or anti-mouse 7/4 (neutrophil), respectively, as previously reported (Kimura et al., 2013). The levels of IFN-γ and IL-17 in BALF, and IL-6 and TNFα in serum were determined using Quantikine® mouse IFN-γ, IL-17, IL-6 or TNF-α ELISA kit (R&D systems, Inc., Minneapolis, Minn., USA) respectively. MDA, an oxidative stress marker, was assayed using OxiSelect® TBARS Assay Kits (MDA Quantitation; Cell Biolabs Inc, San Diego, Calif., USA). Aspergillus GM in serum was determination using Platelia GM-EIA kits (Bio-Rad Laboratories, Redmond, Wash., USA). Cut-off index was calculated by the formula: Cut-off index=OD in sample/OD in cut-off control provided in kit. For tissue fungal load assays, 100 mg of lung tissue was removed aseptically and homogenized in 0.2 mL of 0.1% agar in sterile distilled water. Serially diluted lung homogenates were plated on Malt agar plates (50 μL/plate), and incubated at 24±1° C. for 72 to 96 h. The colonies of A. fumigatus on each plate was counted and the fungal titre presented as CFU per gram of lung tissue.

[2] = system: Aspergillus fumigatus (ATCC 13073); assay: IL-6 and TNFα levels in serum of Aspergillus fumigatus infected mice; type: in vivo
Protocol: as §1, §2, §3, §4

[3] = Prophylactic Treatment, 0.08 mg/mL intra-nasally
[4] = Prophylactic Treatment, 0.4 mg/mL intra-nasally
[5] = Prophylactic Treatment, 2 mg/mL intra-nasally
[6] = Therapeutic Treatment, 0.4 mg/mL intra-nasally
[7] = Therapeutic Treatment, 2 mg/mL intra-nasally
[8] = Therapeutic Treatment, 10 mg/mL intra-nasally

For `Cc1cc(N2CCN(c3ccc(C(=O)Nc4ccc(F)cc4)cc3)CC2)ccc1OC[C@@H]1CO[C@@](Cn2cncn2)(c2ccc(F)cc2F)C1` [Compound (I), 4-(4-(4-(((3R,5R)-5-((1H-1,2,4-triazol-1-yl)methyl)-5-(2,4-difluorophenyl)tetrahydrofuran-3-yl)methoxy)-3-methylphenyl)piperazin-1-yl)-N-(4-fluorophenyl)benzamide], the “effect on the viability of BEAS2B bronchial epithelial cells” value (BEAS2B cells) was “no or little effect”, the “Macrophage cell numbers in BAL” value [1, 3] was 0.40 ± 0.15 × 10^5/mL and the “Macrophage cell numbers in BAL, % inhibition” value [1, 3] was 38%. For the same molecule, the “Neutrophil cell numbers in BAL” value [1, 3] was 0.37 ± 0.04 × 10^5/mL, the “Neutrophil cell numbers in BAL, % inhibition” value [1, 3] was 24% and the “Macrophage cell numbers in BAL” value [1, 4] was 0.32 ± 0.07 × 10^5/mL. For the same molecule, the “Macrophage cell numbers in BAL, % inhibition” value [1, 4] was 51%, the “Neutrophil cell numbers in BAL” value [1, 4] was 0.26 ± 0.12 × 10^5/mL and the “Neutrophil cell numbers in BAL, % inhibition” value [1, 4] was 47%. For the same molecule, the “Macrophage cell numbers in BAL” value [1, 5] was 0.26 ± 0.05 × 10^5/mL, the “Macrophage cell numbers in BAL, % inhibition” value [1, 5] was 60% and the “Neutrophil cell numbers in BAL” value [1, 5] was 0.22 ± 0.04 × 10^5/mL. The “Neutrophil cell numbers in BAL, % inhibition” value [1, 5] was 55%, the “Macrophage cell numbers in BAL” value [1, 6] was 0.43 ± 0.05 × 10^5/mL and the “Macrophage cell numbers in BAL, % inhibition” value [1, 6] was 34%. For the same molecule, the “Neutrophil cell numbers in BAL” value [1, 6] was 0.38 ± 0.04 × 10^5/mL, the “Neutrophil cell numbers in BAL, % inhibition” value [1, 6] was 22% and the “Macrophage cell numbers in BAL” value [1, 7] was 0.40 ± 0.11 × 10^5/mL. The “Macrophage cell numbers in BAL, % inhibition” value [1, 7] was 38%, the “Neutrophil cell numbers in BAL” value [1, 7] was 0.34 ± 0.05 × 10^5/mL and the “Neutrophil cell numbers in BAL, % inhibition” value [1, 7] was 31%. The “Macrophage cell numbers in BAL” value [1, 8] was 0.32 ± 0.07 × 10^5/mL, the “Macrophage cell numbers in BAL, % inhibition” value [1, 8] was 51% and the “Neutrophil cell numbers in BAL” value [1, 8] was 0.27 ± 0.08 × 10^5/mL. The “Neutrophil cell numbers in BAL, % inhibition” value [1, 8] was 45%, the “IL-6 concentration in serum” value [2, 3] was 159 ± 73.3 pg/mL and the “IL-6 in serum, % Inhibition” value [2, 3] was 44%. For the same molecule, the “TNFα concentration in serum” value [2, 3] was 11.8 ± 5.9 pg/mL, the “TNFα in serum, % Inhibition” value [2, 3] was 54% and the “IL-6 concentration in serum” value [2, 4] was 86.3 ± 46.9 pg/mL. The “IL-6 in serum, % Inhibition” value [2, 4] was 70%, the “TNFα concentration in serum” value [2, 4] was 7.3 ± 3.5 pg/mL and the “TNFα in serum, % Inhibition” value [2, 4] was 71%. The “IL-6 concentration in serum” value [2, 5] was 44.5 ± 12.2 pg/mL, the “IL-6 in serum, % Inhibition” value [2, 5] was 84% and the “TNFα concentration in serum” value [2, 5] was 4.7 ± 0.4 pg/mL. For the same molecule, the “TNFα in serum, % Inhibition” value [2, 5] was 82%, the “IL-6 concentration in serum” value [2, 6] was 51.7 ± 16.8 pg/mL and the “IL-6 in serum, % Inhibition” value [2, 6] was 82%. For the same molecule, the “TNFα concentration in serum” value [2, 6] was 6.2 ± 0.5 pg/mL, the “TNFα in serum, % Inhibition” value [2, 6] was 76% and the “IL-6 concentration in serum” value [2, 7] was 44.2 ± 11.4 pg/mL. For the same molecule, the “IL-6 in serum, % Inhibition” value [2, 7] was 84%, the “TNFα concentration in serum” value [2, 7] was 5.5 ± 0.7 pg/mL and the “TNFα in serum, % Inhibition” value [2, 7] was 79%. For the same molecule, the “IL-6 concentration in serum” value [2, 8] was 35.9 ± 10.4 pg/mL, the “IL-6 in serum, % Inhibition” value [2, 8] was 87% and the “TNFα concentration in serum” value [2, 8] was 4.9 ± 0.6 pg/mL. The “TNFα in serum, % Inhibition” value [2, 8] was 81%.
